Holding throughout (assay): DTP human tumour cell line panel, 48 h
For experiment [1], the system named is A498 renal.
Experiment [2] has as its system HCT-15 colon.
Experiment [3] concerns HOP-62 NSCLC.
Experiment [4] has as its system HT29 colon.
Experiment [5] concerns RPMI-8226 leukemia.
For experiment [6], the system named is SN12C renal.
Experiment [7] has as its system SR leukemia.
Experiment [8] deals with UACC-62 melanoma.

Several values for one entry are separate records, joined by “and”; a condition that tells them apart may be missing. Equal values may be shown once.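 Briefly, cells in 96-well plates were exposed to five compound concentrations for 48 h, and endpoints were estimated by linear interpolation. GI50 is the concentration that inhibits growth by half. At the TGI there is no net growth.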

In the case of `COc1cc2ncnc(Nc3cccc(Cl)c3F)c2cc1OC(=O)N1CCN(C)C[C@H]1C`, the GI50 in experiment [1] is 3.44 µM; in experiment [2] it was greater than 41.4 µM; in experiment [3], greater than 35.7 µM; in experiment [4], greater than 38.4 µM; in experiment [5] it was greater than 42.6 µM; in experiment [6] it was 40.5 µM. The results for the GI50 in experiment [7] and in experiment [8] were greater than 45.8 µM and greater than 40.7 µM, respectively. Moreover, the TGI is greater than 45.1 µM in experiment [1]; greater than 88.8 µM in experiment [2]; greater than 66.3 µM in experiment [3]; greater than 64.9 µM in experiment [4]; greater than 68.2 µM in experiment [5]; greater than 100 µM in experiment [6]. Further, the results for the concentration for total growth inhibition (TGI) in experiment [7] and in experiment [8] were greater than 71.8 µM and greater than 65.5 µM, respectively.
As for `C[C@@H](NC(=O)/C(C#N)=C/c1ccc([N+](=O)[O-])cc1)c1ccccc1`, the GI50 is 4.25 µM in experiment [1]; 1.85 µM in experiment [2]; 2.88 µM in experiment [3]; 4.85 µM in experiment [4]; 2.23 µM in experiment [5]; 2.11 µM in experiment [6]. Besides, the results for the GI50 in experiment [7] and in experiment [8] were 1.73 µM and 1.8 µM, respectively. The TGI in experiment [1] was 8.49 µM; in experiment [2], 3.88 µM; in experiment [3] it was 8.91 µM; in experiment [4], 10.2 µM; in experiment [5] it was 5.95 µM; in experiment [6], 4.85 µM. Besides, the concentration for total growth inhibition (TGI) in experiment [7] stood at 5.55 µM; in experiment [8] it was 3.71 µM.
Consider `COc1ccc2c(c1)[nH]c(=O)c1c3ccccc3cn21`, for which the GI50 in experiment [1] is 0.0223 µM and < 0.0375 µM; in experiment [2] it was 0.0262 µM and < 0.0177 µM; in experiment [3] it was 0.0312 µM; in experiment [4], 0.034 µM; in experiment [5], 0.0366 µM; in experiment [6] it was 0.0571 µM and 0.28 µM. Further, the 50% growth inhibitory concentration (GI50) in experiment [8] was 0.0738 µM. For the same compound, the TGI was 1.23 µM in experiment [3]; 1.4 µM and 0.4 µM in experiment [5]; 2.08 µM and 8.97 µM in experiment [6]; 2.04 µM in experiment [7]; 1.89 µM and 13.3 µM in experiment [8].
With `COc1cc(/C(=C2/O[C@@H]([C@H]3COC(C)(C)O3)[C@H]3OC(C)(C)O[C@@H]23)c2ccc3ccccc3c2)cc(OC)c1OC`, the GI50 in experiment [1] is 17.8 µM; in experiment [2] it was 76.8 µM; in experiment [3], 9.78 µM; in experiment [4] it was 3.64 µM; in experiment [5], 33.3 µM; in experiment [6] it was 3.65 µM. Also, the GI50 in experiment [7] is greater than 100 µM; in experiment [8], 7.13 µM. Also, the concentration for total growth inhibition (TGI) in experiment [1] was 74.6 µM; in experiment [2], greater than 100 µM; in experiment [3], 31.4 µM; in experiment [4], 16.3 µM; in experiment [5], greater than 100 µM; in experiment [6], greater than 100 µM. In addition, the TGI in experiment [7] and in experiment [8] was greater than 100 µM each time.
Consider `COc1cc(C(=O)N2CCN(c3ccccc3)CC2)c2ccccc2n1`, for which the GI50 in experiment [1] is 0.0226 µM; in experiment [2], 0.149 µM; in experiment [3], 0.119 µM; in experiment [4], 0.041 µM; in experiment [5], 0.247 µM; in experiment [6], 0.485 µM. Also, the GI50 was 0.0537 µM in experiment [7] and 0.0482 µM in experiment [8]. Further, the TGI in experiment [1] was 0.357 µM; in experiment [2], greater than 100 µM; in experiment [3], greater than 100 µM; in experiment [4] it was 10.3 µM; in experiment [5], greater than 100 µM; in experiment [6] it was greater than 100 µM. Besides, the total growth inhibition concentration (TGI) in experiment [7] and in experiment [8] was greater than 100 µM throughout.
With `C[C@]12CC[C@@H]3c4cc(OC(F)F)c(OS(N)(=O)=O)cc4CC[C@H]3[C@@H]1CC[C@@H]2OS(N)(=O)=O`, the GI50 was 0.934 µM in experiment [1]; 0.593 µM in experiment [2]; 3.4 µM in experiment [3]; 2.25 µM in experiment [4]; 1.03 µM in experiment [5]; 2.07 µM in experiment [6]. Further, the results for the GI50 in experiment [7] and in experiment [8] were 0.441 µM and 1.38 µM, respectively. For the same compound, the TGI is 4.02 µM in experiment [1]; 15.8 µM in experiment [2]; 38.8 µM in experiment [3]; 22.5 µM in experiment [4]; 35.4 µM in experiment [5]; 21.4 µM in experiment [6]. Moreover, the total growth inhibition concentration (TGI) was greater than 100 µM in experiment [7] and 16.8 µM in experiment [8].
As to `Cn1cc(C2=C(c3c4n(c5ccccc35)CCC(CN)C4)C(=O)NC2=O)c2ccccc21` (stereo not given), the GI50 in experiment [1] is 4.02 µM; in experiment [2], 4.02 µM; in experiment [3], 3.12 µM; in experiment [4], 2.67 µM; in experiment [5] it was 3.93 µM; in experiment [6], 2.72 µM. Moreover, the GI50 in experiment [7] was 2.17 µM; in experiment [8] it was 3 µM. Moreover, the TGI in experiment [1] stood at 7.6 µM; in experiment [2], 8.65 µM; in experiment [3] it was 6.62 µM; in experiment [4], 5.95 µM; in experiment [5] it was 9.61 µM; in experiment [6], 6.56 µM. The TGI was found to be 7.81 µM in experiment [7] and 6.21 µM in experiment [8].
For `C#CCN(Cc1nc2cc(C(F)(F)F)ccc2nc1-c1ccccc1)c1ccc(C)cc1`, the GI50 in experiment [1] is 10.6 µM; in experiment [2], 6.01 µM; in experiment [3] it was 4.41 µM; in experiment [4], 12.4 µM; in experiment [5], greater than 48.5 µM; in experiment [6], greater than 28.2 µM. Also, the GI50 is 16.1 µM in experiment [7] and 7.32 µM in experiment [8]. Further, the total growth inhibition concentration (TGI) was 27.5 µM in experiment [1]; greater than 24.8 µM in experiment [2]; 33.9 µM in experiment [3]; greater than 32 µM in experiment [4]; greater than 76.3 µM in experiment [5]; greater than 59.9 µM in experiment [6]. The TGI in experiment [7] came to 41.3 µM; in experiment [8] it was 27.9 µM.
Take `COCCNc1ccc2c3c(cccc13)C(=O)N(CCN(C)C)C2=O`: the GI50 in experiment [1] is 6.16 µM; in experiment [2] it was 6.84 µM; in experiment [3], 7.55 µM; in experiment [4], 7.66 µM; in experiment [5] it was 5.27 µM; in experiment [6] it was 7.23 µM. For the same compound, the GI50 was 3.67 µM in experiment [7] and 4.54 µM in experiment [8]. Besides, the total growth inhibition concentration (TGI) is 21.5 µM in experiment [1]; greater than 25 µM in experiment [2]; greater than 25 µM in experiment [3]; greater than 25 µM in experiment [4]; 15 µM in experiment [5]; greater than 25 µM in experiment [6]. In addition, the total growth inhibition concentration (TGI) in experiment [7] is 11.4 µM; in experiment [8], 14.4 µM.

The GI50 is the concentration giving 50% growth inhibition. By TGI is commonly meant the concentration giving total growth inhibition.
